The record followed here is patent US20080125432A1 (Devgen NV, priority 2004, published 2008).

One data set deals with T1, human Kv4.3/KChIP2.2 potassium channel (Homo sapiens, UniProt Q9UK17).
T1 construct: expressed in transfected cells
T1 sequence (Q9UK17 1-655): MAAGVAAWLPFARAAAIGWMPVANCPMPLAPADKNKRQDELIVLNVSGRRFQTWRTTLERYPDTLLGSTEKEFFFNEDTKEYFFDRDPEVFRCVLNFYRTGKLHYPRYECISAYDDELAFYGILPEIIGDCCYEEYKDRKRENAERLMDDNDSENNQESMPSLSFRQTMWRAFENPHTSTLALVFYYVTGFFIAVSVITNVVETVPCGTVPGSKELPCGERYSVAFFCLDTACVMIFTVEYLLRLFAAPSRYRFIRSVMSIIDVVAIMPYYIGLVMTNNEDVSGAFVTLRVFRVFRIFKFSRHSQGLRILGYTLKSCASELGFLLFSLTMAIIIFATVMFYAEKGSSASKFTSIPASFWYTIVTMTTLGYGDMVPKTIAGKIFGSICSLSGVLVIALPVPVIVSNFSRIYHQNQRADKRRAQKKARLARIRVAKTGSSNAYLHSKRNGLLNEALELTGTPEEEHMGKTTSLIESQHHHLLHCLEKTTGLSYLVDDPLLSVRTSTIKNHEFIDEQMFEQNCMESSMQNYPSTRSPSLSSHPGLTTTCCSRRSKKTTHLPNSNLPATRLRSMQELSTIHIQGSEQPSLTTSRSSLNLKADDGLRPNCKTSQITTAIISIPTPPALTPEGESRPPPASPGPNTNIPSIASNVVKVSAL
The data set can be described thus: Whole cell patch clamp, CHO-K1 cells stably expressing human Kv4.3/KChIP2.2. The data set is classed as cell-based. The settings on record: CHO-K1; remaining current measured after application of the compound and relative to the blank; read-out: Kv4.3 charge in %. The procedure: For this experiment, a recombinant CHO-K1 cell line stably expressing the human Kv4.3/KChIP2.2 potassium channel was used. The cells used for this experiment were kept in continuous culture under standard conditions (37° C., air supplemented with 7% CO2). The CHO-K1 Kv4.3/KChIP2.2 cells were kept in Iscove s modified DMEM (Dulbecco's Modified Eagle's Medium) medium (IMEM) supplemented with 100 U/ml Penicillin, 100 μg/ml Streptomycin, 7% fetal calf serum (FCS), 2.5 μg/ml amphotericin, 400 μg/ml G418, and 400 μg/ml Zeocin™. Cells were passed every 3-4 days after detachment using a Trypsin solution. The quality of the cultured cells was guaranteed by vitality and contamination tests. The culture of the cells was performed as described in protocol D hereunder.
10 mM stock solutions of the compounds were prepared in DMSO. Solutions of the compounds were prepared by dilution of stock solution in bath solution. If the required stock solution volume was theoretically below 1 μl, bath solutions with higher compound concentration were used for dilution. The maximal DMSO concentration during experiments was 0.1% (v/v).
Activity of the human Kv4.3/KChIP2.2 channel was investigated using the patch clamp technique in its whole cell mode. This means that the current needed for clamping the whole cell expressing the K^+-channel protein to a specific potential was measured. Experiments were performed using a patch clamp set-up. Technical equipment needed for manipulation of the cells was placed on a vibration-isolated table and shielded with a Faraday cage to minimize electrical noise. The amplifier and control system were placed in a rack outside the Faraday cage. The system consisted of an EPC9 or EPC10 patch clamp amplifier (HEKA, Lambrecht, Germany), and the perfusion system DADVC8 (ALA Scientific, New York, USA) controlled by the Pulse software package (HEKA, Lambrecht, Germany) installed on a personal computer. The pipettes used for patch clamping were made of borosilicate glass.
Measurements were performed at room temperature (20-25° C.). In each experiment (i.e. each cell) only one concentration of the compounds was investigated no cumulative dosages were performed. Each cell acted as its own control. […]
Between voltage pulses the cell was clamped to a holding potential of −80 mV (inside). The test protocols are illustrated in FIG. 1 and Table 4. The test protocol illustrated in FIG. 1a was used to characterize the properties of the Kv4.3/KChIP2.2 channel and to check the quality of the individual patch clamp experiment (voltage control). […] Each test protocol consisted of 4 segments.
After the whole cell configuration was established a current-voltage curve (IV activation 1; FIG. 1a and Table 4a) was recorded under constant superfusion with bath solution to check for Kv4.3/KChIP2.2 expression and the quality of the individual patch clamp experiment (voltage control). Subsequently, 14 test pulses (series 1; FIG. 1b and Table 4b) were applied at 0.1 Hz under constant superfusion with bath solution. The protocol was initiated by a voltage jump to 100 mV (400 ms) to achieve full inactivation. Then the Kv4.3/KChIP2.2 channels were transferred to the open state by depolarization to +40 mV for 300 milliseconds (activation). Only cells generating current amplitudes between 1 nA and 50 nA were used for the experimental procedure. No or negligible rundown was observed.
Then, 36 test pulses (series 2) were applied at 0.1 Hz under constant superfusion with the compound dissolved in bath solution. Finally, another current-voltage curve was recorded in the presence of the compounds (IV activation 2).
Three different types of analysis were used: Inhibition at the peak current, inhibition of translocated charge and inhibition 75 ms after activation at +40 mV (sustained current). The peak current/charge/current at 75 ms was determined using the online analysis tool of the HEKA pulse software package. […]
On the technique in general: The patch-clamp technique gives a direct electrical read-out from membranes.
As to `COc1ccccc1Nc1nc(C)c(C(=O)N[C@H]2CCC[C@@H]2OCc2ccccc2)o1` [Compound 210, 2-(2-methoxy-phenylamino)-4-methyl-oxazole-5-carboxylic acid ((1S,2S)-2-benzyloxycyclopent-1-yl) amide], the remaining activity at 1 µM was found to be 86%.

Staying with this data set, now noted: CHO-K1; remaining peak height measured after application of the compound and relative to the blank; read-out: Kv4.3 peak in %.
For the molecule `COc1ccccc1Nc1nc(C)c(C(=O)N[C@H]2CCC[C@@H]2OCc2ccccc2)o1` [Compound 210, 2-(2-methoxy-phenylamino)-4-methyl-oxazole-5-carboxylic acid ((1S,2S)-2-benzyloxycyclopent-1-yl) amide], the remaining activity at 1 µM came out at 99%.

Still in this data set, the particulars now being: Kv4.3 mediated current, charge; patch clamp; read-out: Kv4.3 charge IC50.
As for “2-(4-bromo-phenylamino)-4-methyl-thiazole-5-carboxylic acid naphth-1-yl methylamide [Compound 27]”, the IC50 came to 2770 nM.
For the molecule `COc1cccc([C@@H](C)NC(=O)c2sc(Nc3ccc(Br)cc3)nc2C)c1` [Compound 21, 2-(4-bromo-phenylamino)-4-methyl-thiazole-5-carboxylic acid (R)-1-(3-methoxyphenyl)ethyl amide], the IC50 was 1260 nM.
On to `Cc1nc(Nc2ccc(Br)cc2)sc1C(=O)N[C@H]1CCC[C@@H]1OCc1ccccc1` [Compound 26, 2-(4-bromo-phenylamino)-4-methyl-thiazole-5-carboxylic acid (1S,2S)-2-(benzyloxycyclopent-1-yl) amide], for which the IC50 was 2180 nM.
On the same count and under the same terms, to `CCCN(Cc1ccc([N+](=O)[O-])cc1)C(=O)c1sc(Nc2ccc(Br)cc2)nc1C` [Compound 28, 2-(4-bromo-phenylamino)-4-methyl-thiazole-5-carboxylic acid (4-nitro-benzyl)-propyl-amide] belongs 1060 nM; to `Cc1nc(N(C)c2ccc(Br)cc2)sc1C(=O)N[C@@H]1CCC[C@H]1OCc1ccccc1` [Compound 29, 2-(4-bromo-phenyl-methylamino)-4-methyl-thiazole-5-carboxylic acid (1R,2R)-2-(benzyloxycyclopent-1-yl) amide], 2130 nM; to `Cc1ccccc1Nc1nc(C)c(C(=O)N[C@@H](C)c2ccc3ccccc3c2)s1` [Compound 32], 2550 nM.
Still for that read-out and setting: next, `COc1ccc(Cl)cc1Nc1nc(C)c(C(=O)N[C@@H]2CCC[C@H]2OCc2ccccc2)s1` [Compound 35, 2-(5-chloro-2-methoxy-phenylamino)-4-methyl-thiazole-5-carboxylic acid (1R,2R)-2-(benzyloxycyclopent-1-yl) amide]: 3060 nM; `C[C@@H](NC(=O)c1csc(Nc2ccccc2)n1)c1ccc([N+](=O)[O-])cc1` [Compound 47, 2-phenylamino-thiazole-4-carboxylic acid 1-((R)-4-nitrophenyl-ethyl)-amide]: 1800 nM.
The same measure, in the same setting: to `COc1ccccc1Nc1nc(C)c(C(=O)N[C@H](C)c2ccc3ccccc3c2)s1` [Compound 53, 2-(2-methoxy-phenylamino)-4-methyl-thiazole-5-carboxylic acid (R)-1-(2-naphtalen-2-yl-ethyl)-amide] belongs 3950 nM; to `Cc1nc(Nc2ccc(Br)cc2)sc1C(=O)NCc1ccncc1` [Compound 57, 2-(4-bromo-phenylamino)-4-methyl-thiazole-5-carboxylic acid (pyridin-4-ylmethyl)-amide], 11200 nM.
Regarding `Cc1nc(Nc2ccc(Br)cc2)sc1C(=O)NCc1cccnc1` [Compound 58, 2-(4-bromo-phenylamino)-4-methyl-thiazole-5-carboxylic acid (pyridin-3-ylmethyl)-amide], the IC50 came out at 4330 nM.
Same read-out and setting: next, `Cc1nc(Nc2ccc(Br)cc2)sc1C(=O)NCc1ccccn1` [Compound 59, 2-(4-bromo-phenylamino)-4-methyl-thiazole-5-carboxylic acid (pyridin-2-ylmethyl)-amide]: 3060 nM; `COc1ccc(CNC(=O)c2sc(Nc3ccc(Br)cc3)nc2C)cc1OC` [Compound 61, 2-(4-bromo-phenylamino)-4-methyl-thiazole-5-carboxylic acid 3,4-dimethoxy-benzylamide]: 1530 nM.
On the same count and under the same terms, next, `Cc1nc(Nc2ccc(F)cc2)sc1C(=O)N[C@H]1CCC[C@@H]1OCc1ccccc1` [Compound 67, 2-(4-fluoro-phenylamino)-4-methyl-thiazole-5-carboxylic acid (1S,2S)-2-(benzyloxycyclopent-1-yl) amide]: 1970 nM.

System in a further data set: not given
Test: not given
Settings: not given
As for `Cc1nc(Nc2ccc(Cl)cc2)sc1C(=O)NNc1ccc([N+](=O)[O-])cc1[N+](=O)[O-]`, the melting point fell in the range of 138 to 164.7 °C.
On the same count and under the same terms, next, `COc1ccccc1Nc1nc(C)c(C(=O)Cc2ccccc2)s1` [Compound 79, 1-[2-(2-methoxy-phenylamino)-4-methyl-thiazol-5-yl]-2-phenyl-ethanone]: 131.7 to 140.6 °C; `Cc1nc(Oc2ccccc2)sc1C(=O)N[C@H]1CCC[C@@H]1OCc1ccccc1` [Compound 80, 4-methyl-2-phenoxy-thiazole-5-carboxylicacid ((1S,2S)-2-benzyloxycyclopent-1-yl)amide]: 93.4 to 95.8 °C.
On the same count and under the same terms, to `Cc1nc(Nc2ccc(N3CCOCC3)cc2)sc1C(=O)N[C@H]1CCC[C@@H]1OCc1ccccc1` [Compound 92, 4-methyl-2-(4-morpholin-4-yl-phenylamino)-thiazole-5-carboxylic acid ((1S,2S)-2-benzyloxycyclopent-1-yl) amide] belongs 192.5 to 194.9 °C; to `COc1ccccc1N(C(C)=O)c1nc(C)c(C(=O)N[C@H]2CCC[C@@H]2OCc2ccccc2)s1` [Compound 129, 2-[acetyl-(2-methoxy-phenyl)-amino]-4-methyl-thiazole-5-carboxylic acid ((1S,2S)-2-benzyloxycyclopent-1-yl) amide], 145.8 to 149 °C.
Same read-out and setting: to `COc1ccccc1Nc1nc(C)c(C(=O)NC(C)c2ccccc2)s1` (stereo not shown) [Compound 130, 2-(2-methoxy-phenylamino)-4-methyl-thiazole-5-carboxylic acid (1-phenyl-ethyl)-amide] belongs 60.3 to 62.4 °C; to `CC[C@@H](NC(=O)c1sc(Nc2ccccc2OC)nc1C)c1ccccc1` [Compound 131, 2-(2-methoxy-phenylamino)-4-methyl-thiazole-5-carboxylic acid ((R)-1-phenyl-propyl)-amide], 57.7 to 59.6 °C; to `CC[C@H](NC(=O)c1sc(Nc2ccccc2OC)nc1C)c1ccccc1` [Compound 132, 2-(2-methoxy-phenylamino)-4-methyl-thiazole-5-carboxylic acid ((S)-1-phenyl-propyl)-amide], 66.5 to 70.4 °C.
With `COc1cccc(Nc2nc(C)c(C(=O)N[C@H]3CCC[C@@H]3OCc3ccccc3)s2)c1` [Compound 133, 2-(3-methoxy-phenylamino)-4-methyl-thiazole-5-carboxylic acid ((1S,2S)-2-benzyloxycyclopent-1-yl) amide], the melting point fell in the range of 152.8 to 155.9 °C.

The term IC50 denotes the point on the concentration scale where inhibition reaches its midpoint. What is called melting point is the temperature, or range, at which the solid turns liquid.
